Consider three compounds from PMC9503946 (Pharmaceuticals, 2022).

Series [1] in a line: in vitro. The note with it: human.
For series [2], the target named is recombinant SARS-CoV-1 nucleocapsid protein (Severe acute respiratory syndrome coronavirus, UniProt P59595). The series can be described thus: biochemical. The format is binding.
Series [3] concerns MRC-5 cells. The note with it: 72 h; 0.003-100 µM.
For series [4], the target named is recombinant SARS-CoV-2 nucleocapsid protein (full-length NP, aa 1–419) (Severe acute respiratory syndrome coronavirus 2, UniProt P0DTC9). The series can be described thus: biochemical. The format is binding.
Series [5] concerns A549 cells. The note with it: 72 h; 0.003-100 µM.

Values joined by “and” are separate entries in the source; they are usually repeats but may differ in a detail not shown here. Identical values can stand only once.

Chain of recombinant SARS-CoV-1 nucleocapsid protein (P59595 whole entry, looked up): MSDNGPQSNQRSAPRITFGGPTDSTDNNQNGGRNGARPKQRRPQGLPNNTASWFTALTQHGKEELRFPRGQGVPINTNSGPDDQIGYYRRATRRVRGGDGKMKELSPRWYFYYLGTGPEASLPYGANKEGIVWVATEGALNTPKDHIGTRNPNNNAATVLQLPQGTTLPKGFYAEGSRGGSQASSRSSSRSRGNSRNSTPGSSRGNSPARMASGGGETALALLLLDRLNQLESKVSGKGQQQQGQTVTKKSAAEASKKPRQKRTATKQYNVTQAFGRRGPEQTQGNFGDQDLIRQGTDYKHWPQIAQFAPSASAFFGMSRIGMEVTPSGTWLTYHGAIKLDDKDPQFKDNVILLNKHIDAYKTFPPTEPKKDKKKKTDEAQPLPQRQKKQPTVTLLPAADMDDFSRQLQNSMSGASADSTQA

`Cc1ccc2ccccc2c1COc1ccc2c(C)c(CC(=O)N3CCC4(O)CCCCC4C3)c(=O)oc2c1C` (stereo not drawn) [Compound 1, 3-[2-(4a-hydroxy-decahydroisoquinolin-2-yl)-2-oxoethyl]-4,8-dimethyl-7-[(2-methylnaphthalen-1-yl)methoxy]-2H-chromen-2-one] registered an IC50 in series [1] of 51 ± 8.13 µM. For the same compound, the Kd in series [2] came out at 14.6 ± 0.44 µM. Also, the “IC50 (cytotoxicity)” value in series [3] was “no toxicity”.
For `Cc1c(CC(=O)N2CCC3(O)CCCCC3C2)c(=O)oc2cc3occ(-c4ccc5ccccc5c4)c3cc12` (stereo not drawn) [Compound 2, 6-[2-(4a-hydroxy-decahydroisoquinolin-2-yl)-2-oxoethyl]-5-methyl-3-(naphthalen-2-yl)-7H-furo [3,2-g]chromen-7-one], in series [4], the Kd stood at 22.8 ± 1.52 µM.
As to `Cc1c(CC(=O)N2CCC3(O)CCCCC3C2)c(=O)oc2c(C)c3occ(-c4ccc5ccccc5c4)c3cc12` (stereo not drawn) [Compound 4, 6-[2-(4a-hydroxy-decahydroisoquinolin-2-yl)-2-oxoethyl]-5,9-dimethyl-3-(naphthalen-2-yl)-7H-furo[3,2-g]chromen-7-one], the “IC50 (cytotoxicity)” value in series [5] is listed as “no toxicity”. For the same compound, the Kd in series [2] was 0.674 µM and < 1 µM.
